As a reminder, the tissue uptake is the share of the injected amount in each gram of the tissue.

Consider one compound from patent US9974870B2, “Compositions and methods for treatment and imaging using nanoparticles” (Washington University, priority 2014, dated 2018).

For one series, the system named is MDA-MB-231 cells. As to the kind of experiment: Cell uptake and efflux studies. In kind it is cell-based, human. An excerpt: The goals of the cell-uptake studies were to (1) assess any changes in the structure-activity relationship resulting from the modular and responsive probe design and (2) evaluate the retention of the iodine containing hydrophobic peptide moiety in treated and untreated cells. Metastatic human breast MDA-MB-231 cells were used to evaluate whether the amino acid sequence modulation would enhance internalization, and how the probe would respond (intracellular) postchemotherapy. In the untreated cells, there was a higher uptake (P<0.001) of [^125I]LS734 (3.6±0.5) than [^125I]LS370 (0.3±0.3) at 2 h postincubation at 37° C. (FIG. 22A). […] The amount of iodinated fraction released by the untreated and treated cells at 3 h (post 2 h incubation and removal of excess activity) was used as a measure of the efflux activity.
MDA-MB-231 cells used for the uptake and efflux assay were grown on 24-well tissue culture plates until they were 80-90% confluent with […] cells per well. […] The experimental treatment group of cells was treated with 10 ng/ml of SN-38 (7-ethyl-10-hydroxy-camptothecin, Sigma Aldrich) for 24 h. Then, the SN-38 was removed, and the second chemotherapeutic drug, UCN-01 (Sigma Aldrich), was introduced at a concentration of […] in 0.1% BSA per well. At this point, respective radioactive solutions ([^125I]LS734 or [^125I]LS370, 0.02 μg per well; specific activities: [^125I]LS370-40×10^6 MBq/mmol; [^125I]LS734-10×10^6 MBq/mmol) were added to treated and control groups. The solutions were added drop-wise into the wells and gently mixed to ensure homogeneous distribution. The final volume per well was 240 μl, and the plates were incubated at 37° C. (5% CO2) for 2 h. After incubation, the supernatant (fraction 1) was collected, and the cells were washed twice with 250 μl of cold serum-free media. […] Fraction 2 represents the cell efflux, which is the amount of radioactivity released from cells after the 2 h uptake. […] The radioactivity in each fraction was measured in a well counter (Packard II gamma counter).

Series [1] in a line: Tissue biodistribution in tumor-bearing Balb/c mice. The series is classed as in vivo. Particulars: female, Balb/c, mouse, thyroid, iv, 0.185 MBq, total radioactivity; 1 h post injection. As for the experimental part: (§1) The structure-activity relationship was evaluated in vivo by performing a tissue biodistribution study in naive (FIG. 26) and tumor-bearing Balb/c mice (FIG. 23). […] The tumor/blood ratios for both [^125I]LS370 and [^125I]LS734 was 0.6±0.03. The tumor/muscle ratios were similar as well but higher than the tumor/blood ratios, [^125I]LS734 (2.2±0.1) and [^125I]LS370 (2.1±0.3). Thyroid uptake was 73±21 and 115±73 for [^125I]LS370 and [^125I]LS734, respectively.
(§2) All animal studies were conducted according to guidelines on the humane care and use of laboratory animals under protocols approved by the Animal Studies Committee at Washington University School of Medicine. For tissue biodistribution studies, syngeneic breast tumor models were prepared via bilateral orthotopic implantation of luciferase-transfected 4T1 mouse mammary carcinoma cells (4T1luc, 5×10^5 cells per tumor) in the mammary fat pads of 6-week-old, female Balb/c mice (NCI, Frederick, Md., USA). Studies were conducted when the tumors reached about 3 mm maximum diameter (−10 days). Healthy female Balb/c mice (n=4 per time point) were anesthetized with 1-2% vaporized isoflurane and injected via tail vein with 0.185 MBq of [^125I]LS370 or [^125I]LS734 (specific activities: [^125I]LS370-40×10^6 MBq/mmol; [^125I]LS734-10×10^6 MBq/mmol). At 1 h post injection, mice were killed. Organs of interest were removed and blotted dry. The radioactivity was measured in a gamma counter (Packard II gamma counter). Diluted standard doses (1:100) were prepared and counted along with the samples. Data points were corrected for radioactive decay. The percent injected dose per gram of tissue (% ID/g) was calculated.

For the next series, the system named is 4T1luc tumors. Described as above. The series is classed as in vivo. Particulars: at 1 h after tail vein injection. As for the experimental part:
as §1, §2

The structures appear in SMILES notation. Non-standard residues stand in square brackets, D forms with d. Residues, ends and D or L forms follow the SMILES beside them. *: point of attachment. DOTA = O=C(O)CN1CCN(CC(=O)O)CCN(CC(=O)*)CCN(CC(=O)O)CC1; Tyr(3-I) = N[C@@H](Cc1ccc(O)c(I)c1)C(=O)O; Orn = NCCC[C@H](N)C(=O)O; Ahx = NCCCCCC(=O)O

For `CC[C@H](C)[C@H](NC(=O)[C@H](C)NC(=O)[C@H](CC(C)C)NC(=O)[C@H](Cc1ccc(O)c(I)c1)NC(C)=O)C(=O)NCCCCCC(=O)N1CCC[C@H]1C(=O)N[C@@H](C)C(=O)N[C@@H](CC(=O)O)C(=O)N[C@@H](CCC(=O)O)C(=O)N[C@H](C(=O)N[C@@H](CC(=O)O)C(=O)NCC(=O)N[C@@H](CCCNC(=N)N)C(=O)N[C@@H](CCCNC(=N)N)C(=O)N[C@@H](CCCNC(=N)N)C(=O)N[C@@H](CCCN)C(=O)N[C@@H](CCCNC(=N)N)C(=O)N[C@@H](CCCNC(=N)N)C(=O)N[C@@H](CCCCN)C(=O)N[C@@H](CCCCN)C(=O)N[C@@H](CCCNC(=N)N)C(=O)N[C@@H](CCCCNC(=O)CN1CCN(CC(=O)O)CCN(CC(=O)O)CCN(CC(=O)O)CC1)C(N)=O)C(C)C` [[^125I]LS734] (Ac-[Tyr(3-I)]LAI[Ahx]PADEVDGRRR[Orn]RRKKRK(DOTA)-NH2), the “efflux activity: iodinated fraction released by untreated versus treated cells” value in the series with MDA-MB-231 cells (at 3 h (post 2 h incubation and removal of excess activity), treatment SN-38 then UCN-01) is given as “higher amount of activity was released from untreated cells compared to treated cells”. Besides, the cell uptake in the series on MDA-MB-231 cells (untreated MDA-MB-231 cells, 2 h postincubation at 37° C.) is 3.6±0.5. The tissue uptake at 1 h in series [1] came to 115 ± 73 %ID/g. The blood circulation entry with 4T1luc tumors was “circulated longer in blood as compared to [^125I]LS370”.
